According to patent US20240041977A1, “ANNEXIN A1 N-TERMINAL PEPTIDE FORMULATIONS AND METHODS” (ResoTher Pharma A/S, priority 2020, published 2024):
“And” between values parts separate entries of the source, which are not always exact repeats. Equal values may be shown once. Marks after values point to notes of the source that are not given here. Ends that are not written are not given here.

Assay: ThT assay lag-time (fibrillation propensity, physical stability)
Assay type: physicochemical
Source text: ThT is widely used to visualize and quantify the presence of misfolded peptide and protein aggregates called amyloids or fibrils. ThT is a fluorescent molecule that binds to inter molecular beta-sheets in peptides and proteins (here AnxA1). […] A weaker fluorescence intensity is indicative of less amyloids or fibrils present with fewer intermolecular beta-sheets where ThT can bind. Some peptides have a tendency to form fibrils and amyloids and the propensity is dependent on the formulation conditions in an unpredictable manor. Fibrillation is a stochastic process and to avoid long analysis times and both false negatives and positive results, shear stress is introduced to the sample by rigorous rotation in microtiter plates while continuously monitoring the fluorescence emission at approximately 486 nm. An increase in the fluorescence is an indication of the formation of amyloids or fibrils and the time it takes for the fluorescence to start increasing is known as the lag-time. A faster (short) lag-time is an indication of higher propensity for the peptide to degrade by formation of fibrils or amyloids. A ThT fluorescence of 50 AU at t=0 is considered noise or background. Lag time is reported as the time it takes for the signal intensity to exceed 50 AU. All samples for the ThT assay were filtered through cellulose acetate filters ([…], Ø=13 mm, rinsed with MilliQ® water prior to filtration). For each sample, 20 μL ThT of a 1 mM solution was added to 1 mL peptide solution. From this sample mixture, 200 μL was transferred into n wells in a 96 well microtiter plate (n=3-6). 96-well NUNC plates Bottom optics and Sealing tape, Thermo Scientific™ Nunc™ Sealing Tapes, was used. Lag-time is reported as an average of n samples. A fluorescence plate reader (CLARIOstar® Plus, BMG Labtech) was used for the experiments with the following setting: Excitation wavelength 450 nm; Dichroic filter 465 nm; Emission wavelength 486 nm; Focal height 3.5 mm; Gain 1000; […]; […]; Number of flashes per well 20; Temperature 25° C.; Shake mode orbital, Frequency of 300 rpm, 200 s, and shake after each cycle. If possible, the average of all ThT data replicates are used for ThT lag-time determination. In case of very stochastic data, worst-case data is used for lag-time evaluation. ThT lag-time was determined using either a 1-step or 2-step sigmoidal curve.

## AMVSEFLKQAWFIENEEQEYVQTLKSSKGGPGSAVSPYPTFNPSSDV-NH2 [AnxA1]
6.4 mg/mL, possibly 5.0 mg/ml, and above, 0.9% NaCl
  fibrillation in ThT assay: already degraded by the formation of fibrils at time zero
10 mM tris, pH 7.5, AnxA1 1.7 mg/mL containing 5% mannitol or sorbitol
  lag-time: > 65 h
AnxA1 1.4 mg/mL, mannitol 4 wt.%, sucrose 2.5 wt.%, glycyl-glycine 50 mM, pH 8.5
  Lag-time: >65 h
AnxA1 1.4 mg/mL, sucrose 10 wt.%, glycyl-glycine 50 mM, pH 8.5
  Lag-time: >65 h
AnxA1 1.5 mg/mL, NaCl 0.9%, ZnCl2 0.77 mM, pH N/A
  Avg. lag-time: 1.8 h
AnxA1 1.5 mg/mL, glucose 5 wt.%, pH 7.1
  Avg-lag time: 21.7 h
AnxA1 1.5 mg/mL, mannitol 4 wt.%, sucrose 2.5 wt.%, glycyl-glycine 10 mM, pH 7.5
  Lag-time: >65 h
AnxA1 1.5 mg/mL, mannitol 4 wt.%, sucrose 2.5 wt.%, glycyl-glycine 50 mM, pH 7.6
  Lag-time: >65 h
AnxA1 1.5 mg/mL, mannitol 5 wt.%, glycyl-glycine 10 mM, pH 7.4, analysis timeframe 65 hours
  Lag-time: >65* hours
AnxA1 1.5 mg/mL, mannitol 5 wt.%, glycyl-glycine 50 mM, pH 7.5
  Lag-time: >65 h
AnxA1 1.5 mg/mL, sucrose 10 wt.%, Tris 10 mM, pH 7.5
  Lag-time: 42.8 h
AnxA1 1.5 mg/mL, sucrose 10 wt.%, glycyl-glycine 10 mM, pH 8.3
  Lag-time: >65 h
AnxA1 1.6 mg/mL in Milli Q water, no salt, pH 7.5, maximum assay time 50 hours
  Avg. lag-time: >50.0* h
AnxA1 1.6 mg/mL in Milli Q water, no salt, pH 7.6, maximum assay time 50 hours
  Avg. lag-time: >50.0* h
AnxA1 1.6 mg/mL, 0.9% NaCl in Milli Q water, pH 7.1
  Avg. lag-time: 28.3 h
AnxA1 1.6 mg/mL, CaCl2 0.77 mM, pH 7.2
  Avg. lag-time: 12.5 h
AnxA1 1.6 mg/mL, CaCl2 0.77 mM, pH 7.4
  Avg. lag-time: 10.8 h
AnxA1 1.6 mg/mL, NaCl 0.9%, CaCl2 0.77 mM, pH 7.1
  Avg. lag-time: 5.4 h
AnxA1 1.6 mg/mL, mannitol 4 wt.%, sucrose 2.5 wt.%, glycyl-glycine 10 mM, pH 8.4
  Lag-time: >65 h
AnxA1 1.6 mg/mL, mannitol 5 wt.%, glycyl-glycine printed as 'e' mM, pH 8.3
  Lag-time: >65 h
AnxA1 1.6 mg/mL, mannitol 5 wt.%, glycylglycine 10 mM, pH 8.0, no increase in fluorescence within 65 hours
  Lag-time: > 65* hours
AnxA1 1.6 mg/mL, mannitol 5 wt.%, pH 6.7, no increase in fluorescence within 65 hours
  Avg-lag time: > 65* h
AnxA1 1.6 mg/mL, sucrose 10 wt.%, glycyl-glycine 50 mM, pH 7.6
  Lag-time: 64.7 h
AnxA1 1.6 mg/mL, sucrose 10 wt.%, glycylglycine 10 mM, pH 8.0, no increase in fluorescence within 65 hours
  Lag-time: > 65* hours
AnxA1 1.6 mg/mL, sucrose 10 wt.%, pH 7.2, no increase in fluorescence within 65 hours
  Avg-lag time: > 65* h
AnxA1 1.6 mg/mL, trehalose 10 wt.%, pH 7.2
  Avg-lag time: 33.3 h
AnxA1 1.7 mg/mL in Milli-Q water, pH 7.4, no increase in fluorescence within 65 hours
  Avg. lag-time: > 65* h
AnxA1 1.7 mg/mL, mannitol 5 wt.%, Tris 10 mM, pH 7.5, no increase in fluorescence within 65 hours
  Lag-time: > 65* hours
AnxA1 1.7 mg/mL, sorbitol 5 wt.%, Tris 10 mM, pH 7.6, no increase in fluorescence within 65 hours
  Lag-time: > 65* hours
AnxA1 1.7 mg/mL, sorbitol 5 wt.%, glycylglycine 10 mM, pH 8.0, no increase in fluorescence within 65 hours
  Lag-time: > 65* hours
AnxA1 3.1 mg/mL in Milli-Q water, pH 7.4
  Avg. lag-time: 50.4 h
AnxA1 3.1 mg/mL, mannitol 5 wt.%, glycylglycine 10 mM, pH 8.0, no increase in fluorescence within 65 hours
  Lag-time: > 65* hours
AnxA1 3.2 mg/mL in Saline (0.9% NaCl), pH 7.4
  Avg. lag-time: 5.6 h
AnxA1 3.2 mg/mL, 0.9% NaCl in Milli Q water, pH 7.4
  Avg. lag-time: 9.3 h
AnxA1 3.2 mg/mL, NaCl 0.9%, pH 7.2
  Avg. lag-time: 9.7 h
AnxA1 3.2 mg/mL, mannitol 5 wt.%, glycylglycine 10 mM, pH 8.0, no increase in fluorescence within 65 hours
  Lag-time: > 65* hours
AnxA1 3.3 mg/mL, mannitol 5 wt.%, glycylglycine 10 mM, pH 8.0, no increase in fluorescence within 65 hours
  Lag-time: > 65* hours
AnxA1 4.0 mg/mL, mannitol 5 wt.%, glycyl-glycine 10 mM, pH 8.2
  Lag-time: >65 h
AnxA1 4 mg/mL, tonicity 100%, NaCl 0.9 wt%, positive control sample in 0.9% saline
  Lag-time: 8.2* hours
AnxA1 4.6 mg/mL in Milli-Q water, pH 7.4
  Avg. lag-time: 61.4 h
AnxA1 4.6 mg/mL, sorbitol 5 wt.%, glycylglycine 10 mM, pH 8.0, no increase in fluorescence within 65 hours
  Lag-time: > 65* hours
AnxA1 4.6 mg/mL, sucrose 10 wt.%, glycyl-glycine 30 mM, pH 8.0
  Lag-time: 39 h
AnxA1 4.7 mg/mL, mannitol 5 wt.%, Tris 10 mM, pH 7.5
  Lag-time: 10.7 h
AnxA1 4.7 mg/mL, mannitol 5 wt.%, glycylglycine 10 mM, pH 8.0, no increase in fluorescence within 65 hours
  Lag-time: > 65* hours
AnxA1 4.7 mg/mL, sorbitol 5 wt.%, Tris 10 mM, pH 7.5
  Lag-time: 10.8 h
AnxA1 4.7 mg/mL, sucrose 10 wt.%, Tris 10 mM, pH 7.5
  Lag-time: 11.1 h
AnxA1 4.7 mg/mL, sucrose 10 wt.%, glycyl-glycine 30 mM, pH 8.0 (two samples)
  Lag-time: >65 h and 50 h
AnxA1 4.8 mg/mL, mannitol 5 wt.%, histidine 10 mM, pH 6.6
  Lag-time: 42.1 h
AnxA1 4.8 mg/mL, sorbitol 5 wt.%, histidine 10 mM, pH 6.7
  Lag-time: 21.3 h
AnxA1 4.8 mg/mL, sucrose 10 wt.%, glycylglycine 10 mM, pH 7.9, no increase in fluorescence within 65 hours
  Lag-time: > 65* hours
AnxA1 4.8 mg/mL, sucrose 10 wt.%, histidine 10 mM, pH 6.6
  Lag-time: 48.8 h
AnxA1 5.0 mg/mL, 0.9% NaCl in Milli Q water, pH 7.3
  Avg. lag-time: 2.7 h
AnxA1 5 mg/mL, tonicity 80%, mannitol 3.2 wt.%, sucrose 0.8 wt.%, NaHCO3 10 mM, pH 8.41
  Lag-time: <60 h
AnxA1 5 mg/mL, tonicity 80%, mannitol 3.2 wt.%, sucrose 0.8 wt.%, glycylglycine 10 mM, pH 8.40
  Lag-time: <60 h
AnxA1 5 mg/mL, tonicity 100%, mannitol 4.0 wt.%, sucrose 1.0 wt.%, NaHCO3 10 mM, pH 8.40
  Lag-time: <60 h
AnxA1 5 mg/mL, tonicity 100%, mannitol 4.0 wt.%, sucrose 1.0 wt.%, glycylglycine 10 mM, pH 8.39
  Lag-time: <60 h
AnxA1 5 mg/mL, tonicity 120%, mannitol 4.8 wt.%, sucrose 1.2 wt.%, NaHCO3 10 mM, pH 8.40
  Lag-time: <60 h
AnxA1 5 mg/mL, tonicity 120%, mannitol 4.8 wt.%, sucrose 1.2 wt.%, glycylglycine 10 mM, pH 8.41
  Lag-time: <60 h
AnxA1 5 mg/mL, tonicity 200%, mannitol 8.0 wt.%, sucrose 2.0 wt.%, NaHCO3 10 mM, pH 8.44
  Lag-time: <60 h
AnxA1 5 mg/mL, tonicity 200%, mannitol 8.0 wt.%, sucrose 2.0 wt.%, glycylglycine 10 mM, pH 8.40
  Lag-time: <60 h
AnxA1 6.1 mg/mL in Milli-Q water, pH 7.4
  Avg. lag-time: 29.6 h
AnxA1 6.4 mg/mL, 0.9% NaCl in Milli Q water, pH 7.3
  Avg. lag-time: 0 h
AnxA1 7.6 mg/mL, 0.9% NaCl in Milli Q water, pH 7.3
  Avg. lag-time: 0 h
AnxA1 7.7 mg/mL, sucrose 10 wt.%, glycyl-glycine 50 mM, pH 8.5
  Lag-time: 29.5 h
AnxA1 7.8 mg/mL, mannitol 4 wt.%, sucrose 2.5 wt.%, glycyl-glycine 50 mM, pH 8.5
  Lag-time: 31.5 h
AnxA1 7.9 mg/mL, sucrose 10 wt.%, glycyl-glycine 10 mM, pH 7.5
  Lag-time: 23.8 h
AnxA1 8.0 mg/mL in Milli-Q water, pH 7.4
  Avg. lag-time: 11.5 h
AnxA1 8.0 mg/mL, mannitol 4 wt.%, sucrose 2.5 wt.%, glycyl-glycine 10 mM, pH 7.5
  Lag-time: 15.1 h
AnxA1 8.0 mg/mL, mannitol 4 wt.%, sucrose 2.5 wt.%, glycyl-glycine 10 mM, pH 8.3
  Lag-time: >65 h
AnxA1 8.0 mg/mL, mannitol 4 wt.%, sucrose 2.5 wt.%, glycyl-glycine 50 mM, pH 7.6
  Lag-time: 3.3 h
AnxA1 8.0 mg/mL, mannitol 5 wt.%, glycyl-glycine 50 mM, pH 7.5
  Lag-time: 3.1 h
AnxA1 8.0 mg/mL, mannitol 5 wt.%, glycyl-glycine 50 mM, pH 8.5
  Lag-time: 41.7 h
AnxA1 8.1 mg/mL, mannitol 5 wt.%, glycyl-glycine 10 mM, pH 7.4
  Lag-time: 13.7 h
AnxA1 8.1 mg/mL, sucrose 10 wt.%, glycyl-glycine 10 mM, pH 8.2
  Lag-time: >65 h
AnxA1 8.4 mg/mL, mannitol 5 wt.%, glycyl-glycine 10 mM, pH 8.2
  Lag-time: 41 h
AnxA1 20 mg/mL (estimated from amount weighed, gel-like texture), 0.9% NaCl, pH 8.1 (not considered valid)
  Avg. lag-time: 0 h
Example 11 composition at pH 7.5
  lag-time: 35 h and 34.7 h
Milli Q water around neutral pH, no addition of salt
  lag-time: > 50 h
NaHCO3 or glycylglycine buffer at 20% hypotonicity, and at 20% and 100% hypertonicity
  fibrillation in ThT assay: No fibrillation was observed
All samples containing 10 mM glycyl-glycine, pH 8, independent of AnxA1 concentration (1.5-4.8 mg/mL) and isotonicity modifier
  Lag-time: > 65 h
Concentrations ≥5 mg/mL, 0.9% NaCl in Milli Q water, around neutral pH, degradation initiated before the analysis is started
  fibrillation propensity: very high fibrillation propensity
Positive control sample in 0.9% saline
  fibrillation in ThT assay: Fibrillation is observed
Saline at neutral pH around 7.3
  fibrillation propensity: very high fibrillation propensity
